pIC50: −log10 of the molar value.
Tests used:
[1] = system: RKO (RKOp27) human colon adenocarcinoma cells; test: Alamar Blue cell viability assay, anti-proliferative/cytotoxic activity on proliferating (uninduced) RKOp27 cells; format: cell-based; settings: RKOp27 subclone without inducer, 72 hours incubation, read-out: IC50 RKO p27 uninduced (proliferating)
Description: The anti-proliferative/cytotoxic activity of the compounds described herein, can be tested on subclones of RKO (RKOp27) human colon adenocarcinoma cells (Schmidt et al., Oncogene 19, 2423-2429; 2000) using the Alamar Blue cell viability assay (described in O'Brien et al. Eur J Biochem 267, 5421-5426, 2000). The compounds are dissolved as 20 mM solutions in dimethylsulfoxide (DMSO) and subsequently diluted in semi-logarithmic steps. DMSO dilutions are further diluted 1:100 into Dulbecco's modified Eagle's medium (DMEM) containing 10% fetal calf serum to a final concentration twice as much as the final concentration in the test. RKO subclones are seeded into 96 well flat bottom plates at a density of 4000 cells per well in a volume of 50 μl per well. 24 hours after seeding the 50 μl each of the compound dilutions in DMEM medium are added into each well of the 96 Well plate. Each compound dilution is tested as quadruplicates. Wells containing untreated control cells are filled with 50 μl DMEM medium containing 1% DMSO. The cells are then incubated with the substances for 72 hours at 37° C. in a humidified atmosphere containing 5% carbon dioxide. To determine the viability of the cells, 10 μl of an Alamar Blue solution (Biosource) are added and the fluorescence is measured at an extinction of 544 nm and an emission of 590 nm. For the calculation of the cell viability the emission value from untreated cells is set as 100% viability and the emission rates of treated cells are set in relation to the values of untreated cells. Viabilities are expressed as % values.
The corresponding IC50 values of the compounds for anti-proliferative/cytotoxic activity are determined from the concentration-effect curves.
Representative IC50 values for anti-proliferation/cytotoxicity determined in the mentioned assay follow from the following table A, in which the numbers of the compound correspond to the numbers of the examples.

[2] = system: RKO colon adenocarcinoma cells (RKOp27) arrested by the expression of ectopic p27Kip1; test: Alamar Blue cell viability assay on RKOp27 cells arrested by Ponasterone A-induced p27Kip1 expression (cell cycle specific mode of action); format: cell-based; settings: Homo sapiens, RKOp27 subclone induced with 10 μM Ponasterone A, 72 hours incubation, read-out: IC50 RKO p27 induced (arrested)
Description: To determine the cell cycle specific mode of action, subclones of RKO colon adenocarcinoma cells (RKOp27 or RKOp21 as described by Schmidt et al. in Oncogene 19, 2423-2429; 2000) are seeded into 96 well flat bottom plates at a density of 16000 cells per well in a volume of 50 μl per well in DMEM growth medium with 10% FCS containing 10 μM Ponasterone A. 24 hours after seeding the 50 μl each of the compound dilutions in DMEM medium are added into each well of the 96 Well plate. Each compound dilution is tested as quadruplicates. Wells containing untreated control cells are filled with 50 μl DMEM medium containing 1% DMSO. The cells are then incubated with the substances for 72 hours at 37° C. in a humidified atmosphere containing 5% carbon dioxide. To determine the viability of the cells, 10 μl of an Alamar Blue solution (Biosource) are added and the fluorescence was measured at an extinction of 544 nm and an emission of 590 nm. For the calculation of the cell viability the emission value from untreated cells is set as 100% viability and the emission rates of treated cells are set in relation to the values of untreated cells. Viabilities are expressed as % values. Viability is compared of proliferating cells grown in the absence of the inducer Ponasterone A, versus viability of cells arrested by the expression of ectopic p27Kip1 induced by Ponasterone A.

| Structure (SMILES) | pIC50 [2] | pIC50 [1] |
| --- | --- | --- |
| CCOC(=O)N1CCc2c(sc(NC(=O)CC(C)c3ccccc3)c2C#N)C1 (racemic) [Example 4, 3-Cyano-2-((RS)-3-phenyl-butanoylamino)-4,7-dihydro-5H-thieno[2,3-c]pyridine-6-carboxylic acid ethyl ester] | < 4.00 | ≥ 6.52 |
| CCOC(=O)N1CCc2c(sc(NC(=O)CC(C)c3cccnc3)c2C#N)C1 (racemic) [Example 49, 3-Cyano-2-((RS)-3-pyridin-3-yl-butanoylamino)-4,7-dihydro-5H-thieno[2,3-c]pyridine-6-carboxylic acid ethyl ester] | < 4.00 | 5.70 to 6.52 |
| CC(CC(=O)Nc1sc2c(c1C#N)CCN(C(=O)OCCc1ccncc1)C2)c1cccnc1 (racemic) [Example 76, 3-Cyano-2-((RS)-3-pyridin-3-yl-butanoylamino)-4,7-dihydro-5H-thieno[2,3-c]pyridine-6-carboxylic acid 2-pyridin-4-yl-ethyl ester] | ≤ 4.40 | 5.70 to 6.52 |
| CC(CC(=O)Nc1sc2c(c1C#N)CCN(C(=O)OCCc1cccnc1)C2)c1ccccc1 (racemic) [Example 92, 3-Cyano-2-((RS)-3-phenyl-butanoylamino)-4,7-dihydro-5H-thieno[2,3-c]pyridine-6-carboxylic acid 2-pyridin-3-yl-ethyl ester] | < 4.00 | ≥ 6.52 |
| CCOC(=O)N1CCc2c(sc(NC(=O)CCc3ccccc3)c2C#N)C1 [Example 1, 3-Cyano-2-(3-phenyl-propanoylamino)-4,7-dihydro-5H-thieno[2,3-c]pyridine-6-carboxylic acid ethyl ester] | < 4.00 | ≥ 6.52 |
| CCOC(=O)N1CCc2c(sc(NC(=O)CCc3ccco3)c2C#N)C1 [Example 5, 3-Cyano-2-(3-furan-2-yl-propanoylamino)-4,7-dihydro-5H-thieno[2,3-c]pyridine-6-carboxylic acid ethyl ester] | < 4.00 | ≥ 6.52 |
| CCOC(=O)N1CCc2c(sc(NC(=O)C(C)Cc3ccccc3)c2C#N)C1 (centres unmarked) [Example 6, 3-Cyano-2-(2-methyl-3-phenyl-propanoylamino)-4,7-dihydro-5H-thieno[2,3-c]pyridine-6-carboxylic acid ethyl ester] | < 4.00 | 5.70 to 6.52 |
| CCOC(=O)N1CCc2c(sc(NC(=O)CCc3cccs3)c2C#N)C1 [Example 7, 3-Cyano-2-(3-thiophen-2-yl-propanoylamino)-4,7-dihydro-5H-thieno[2,3-c]pyridine-6-carboxylic acid ethyl ester] | < 4.00 | ≥ 6.52 |
| CCOC(=O)N1CCc2c(sc(NC(=O)CCc3ccc(F)cc3)c2C#N)C1 [Example 8, 3-Cyano-2-(3-(4-fluoro-phenyl)-propanoylamino)-4,7-dihydro-5H-thieno[2,3-c]pyridine-6-carboxylic acid ethyl ester] | < 4.00 | ≥ 6.52 |
| CCOC(=O)N1CCc2c(sc(NC(=O)CCc3cc(C)c(C)o3)c2C#N)C1 [Example 11, 3-Cyano-2-[3-(4,5-dimethyl-furan-2-yl)-propanoylamino]-4,7-dihydro-5H-thieno[2,3-c]pyridine-6-carboxylic acid ethyl ester] | < 4.00 | ≥ 6.52 |
| CCOC(=O)N1CCc2c(sc(NC(=O)CCc3cccc(F)c3)c2C#N)C1 [Example 12, 3-Cyano-2-[3-(3-fluoro-phenyl)-propanoylamino]-4,7-dihydro-5H-thieno[2,3-c]pyridine-6-carboxylic acid ethyl ester] | < 4.00 | ≥ 6.52 |
| CCOC(=O)N1CCc2c(sc(NC(=O)CCc3ccccc3Cl)c2C#N)C1 [Example 13, 2-[3-(2-Chloro-phenyl)-propanoylamino]-3-cyano-4,7-dihydro-5H-thieno[2,3-c]pyridine-6-carboxylic acid ethyl ester] | < 4.00 | ≥ 6.52 |
| CCOC(=O)N1CCc2c(sc(NC(=O)CCc3ccc(C)cc3)c2C#N)C1 [Example 14, 3-Cyano-2-(3-p-tolyl-propanoylamino)-4,7-dihydro-5H-thieno[2,3-c]pyridine-6-carboxylic acid ethyl ester] | < 4.00 | ≥ 6.52 |
| CCOC(=O)N1CCc2c(sc(NC(=O)CCc3cccc(Cl)c3)c2C#N)C1 [Example 16, 2-[3-(3-Chloro-phenyl)-propanoylamino]-3-cyano-4,7-dihydro-5H-thieno[2,3-c]pyridine-6-carboxylic acid ethyl ester] | < 4.00 | ≥ 6.52 |
| CCOC(=O)N1CCc2c(sc(NC(=O)CCc3cccc(C)c3)c2C#N)C1 [Example 18, 3-Cyano-2-(3-m-tolyl-propanoylamino)-4,7-dihydro-5H-thieno[2,3-c]pyridine-6-carboxylic acid ethyl ester] | < 4.00 | ≥ 6.52 |
| CCOC(=O)N1CCc2c(sc(NC(=O)CCC3CCCCC3)c2C#N)C1 [Example 19, 3-Cyano-2-(3-cyclohexyl-propanoylamino)-4,7-dihydro-5H-thieno[2,3-c]pyridine-6-carboxylic acid ethyl ester] | < 4.00 | 5.70 to 6.52 |
| CCOC(=O)N1CCc2c(sc(NC(=O)CCn3nccc3C)c2C#N)C1 [Example 20, 3-Cyano-2-[3-(5-methyl-pyrazol-1-yl)-propanoylamino]-4,7-dihydro-5H-thieno[2,3-c]pyridine-6-carboxylic acid ethyl ester] | < 4.00 | 5.70 to 6.52 |

Further lines, with some results ahead:

| pIC50 [2] | Structure (SMILES) | pIC50 [1] |
| --- | --- | --- |
| < 4.00 | CC(CC(=O)Nc1sc2c(c1C#N)CCN(C(=O)OCCn1ccnc1)C2)c1ccccc1 (racemic) [Example 96, 3-Cyano-2-((RS)-3-phenyl-butanoylamino)-4,7-dihydro-5H-thieno[2,3-c]pyridine-6-carboxylic acid 2-imidazol-1-yl-ethyl ester] | ≥ 6.52 |
| < 4.00 | CCOC(=O)N1CCc2c(sc(NC(=O)C3CC3c3ccccc3)c2C#N)C1 (centres unmarked) [Example 2, 3-Cyano-2-{[1-(2-phenyl-cyclopropyl)-methanoyl]-amino}-4,7-dihydro-5H-thieno[2,3-c]pyridine-6-carboxylic acid ethyl ester] | ≥ 6.52 |
| < 4.00 | CCOC(=O)N1CCc2c(sc(NC(=O)CCc3ccccc3C)c2C#N)C1 [Example 3, 3-Cyano-2-(3-o-tolyl-propanoylamino)-4,7-dihydro-5H-thieno[2,3-c]pyridine-6-carboxylic acid ethyl ester] | ≥ 6.52 |
| < 4.00 | CCOC(=O)N1CCc2c(sc(NC(=O)CCc3cccnc3)c2C#N)C1 [Example 9, 3-Cyano-2-(3-pyridin-3-yl-propanoylamino)-4,7-dihydro-5H-thieno[2,3-c]pyridine-6-carboxylic acid ethyl ester] | 5.70 to 6.52 |
| < 4.00 | CCOC(=O)N1CCc2c(sc(NC(=O)CCc3ccccc3F)c2C#N)C1 [Example 10, 3-Cyano-2-(3-(2-fluoro-phenyl)-propanoylamino)-4,7-dihydro-5H-thieno[2,3-c]pyridine-6-carboxylic acid ethyl ester] | ≥ 6.52 |
| < 4.00 | CC(C)(C)OC(=O)N1CCc2c(sc(NC(=O)CCc3cccnc3)c2C#N)C1 [Example 15, 3-Cyano-2-(3-pyridin-3-yl-propanoylamino)-4,7-dihydro-5H-thieno[2,3-c]pyridine-6-carboxylic acid tert-butyl ester] | ≥ 6.52 |
| < 4.00 | CCOC(=O)N1CCc2c(sc(NC(=O)CCc3ccc(Cl)cc3)c2C#N)C1 [Example 17, 2-[3-(4-Chloro-phenyl)-propanoylamino]-3-cyano-4,7-dihydro-5H-thieno[2,3-c]pyridine-6-carboxylic acid ethyl ester] | ≥ 6.52 |
| < 4.00 | CCOC(=O)N1CCc2c(sc(NC(=O)CCC3CCCO3)c2C#N)C1 (centres unmarked) [Example 21, 3-Cyano-2-(3-tetrahydro-furan-2-yl-propanoylamino)-4,7-dihydro-5H-thieno[2,3-c]pyridine-6-carboxylic acid ethyl ester] | ≥ 6.52 |
